According to patent US8067424B2, “Selective inhibitors for cyclin-dependent kinases” (Emory University, priority 2007, dated 2011):
Read-outs that look alike come from different tables or passages of the source.

Legend:
PKD1 = target: T1, PKD1 (Homo sapiens, UniProt Q15139); experiment: Kinase screen: PKD1 assay; type: biochemical
T1 sequence (Q15139 1-912): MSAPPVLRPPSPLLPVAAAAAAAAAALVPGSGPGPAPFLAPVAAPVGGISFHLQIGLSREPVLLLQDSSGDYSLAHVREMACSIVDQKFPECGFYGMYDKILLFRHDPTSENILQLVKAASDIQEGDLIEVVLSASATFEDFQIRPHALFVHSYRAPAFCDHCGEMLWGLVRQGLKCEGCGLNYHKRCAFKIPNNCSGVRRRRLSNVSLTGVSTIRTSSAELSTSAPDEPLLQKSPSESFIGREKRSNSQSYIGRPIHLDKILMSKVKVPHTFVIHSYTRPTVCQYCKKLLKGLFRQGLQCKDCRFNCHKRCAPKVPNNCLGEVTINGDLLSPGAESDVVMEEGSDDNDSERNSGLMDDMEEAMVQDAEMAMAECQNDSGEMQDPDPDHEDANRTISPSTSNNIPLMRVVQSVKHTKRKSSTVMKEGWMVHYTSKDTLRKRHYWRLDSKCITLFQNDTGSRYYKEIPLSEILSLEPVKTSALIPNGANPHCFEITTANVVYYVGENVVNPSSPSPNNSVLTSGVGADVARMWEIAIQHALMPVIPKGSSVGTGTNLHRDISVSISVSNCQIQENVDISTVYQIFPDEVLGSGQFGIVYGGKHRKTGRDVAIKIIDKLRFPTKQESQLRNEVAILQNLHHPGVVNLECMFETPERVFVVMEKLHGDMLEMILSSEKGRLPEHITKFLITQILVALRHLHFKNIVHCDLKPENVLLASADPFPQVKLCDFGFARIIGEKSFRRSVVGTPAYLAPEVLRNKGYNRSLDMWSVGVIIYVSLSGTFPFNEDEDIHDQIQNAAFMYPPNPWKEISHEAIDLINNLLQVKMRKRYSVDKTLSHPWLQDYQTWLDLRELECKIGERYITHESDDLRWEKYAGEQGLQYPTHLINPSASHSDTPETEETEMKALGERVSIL
Protocol: Generally, the same procedure was used for all assays. Since the total assay volume was 25.5 microliters, 0.5 microliters of inhibitors at 51× assay concentration were added to the plates before any other addition.
The basic procedure was to add 0.5 microliters inhibitor/control in DMSO to plate. Fifteen microliters of enzyme/substrate/buffer mix were added and incubated for 5 min. Ten microliters MgATP at the relevant concentration were added and incubated for 30 min. The assay was stopped by adding 5 microliters of 3% orthophosphoric acid. The assay was transferred to a p81 filter plate and read in a scintillation counter of 30 sec/well. Note that this assay procedure was not followed for MKK1, which instead involved a two-step assay, and PKC alpha, which required the addition of lipid vesicles.
PKD1 assay: PKD1 (5-20 mU diluted in 50 mM Tris pH 7.5, 0.1 mM EGTA, 0.1% b-mercaptoethanol, 1 mg/ml BSA) was assayed substrate peptide ([…]) (SEQ ID NO: 3) in a final volume of 25.5 μl containing 50 mM Tris pH 7.5, 0.05% b-mercaptoethanol, 30 μM substrate peptide, 10 mM magnesium acetate and 0.05 mM [33P-g-ATP] (50-1000 cpm/pmole) and incubated for 30 min at room temperature. Assays were stopped by addition of 5 μl of 0.5 M (3%) orthophosphoric acid and then harvested onto P81 Unifilter plates with a wash buffer of 50 mM orthophosphoric acid.

CDK 5 = CDK 5 (Homo sapiens, UniProt Q00535); experiment: CDK5 in vitro kinase inhibition (protocol similar to Example 14); type: biochemical; conditions: for remaining activity at 0.1 µM: 100 nM, mean of three (standard deviation), read-out: CDK5 % remaining kinase activity after incubation with 100 nM of compound; for IC50: Table 7, mean of three experiments
[1] = 10 micromolar compound, read-out: mean activity remaining (as a percentage of the original activity), PKD1

Sequence of CDK 5 (Q00535 whole entry): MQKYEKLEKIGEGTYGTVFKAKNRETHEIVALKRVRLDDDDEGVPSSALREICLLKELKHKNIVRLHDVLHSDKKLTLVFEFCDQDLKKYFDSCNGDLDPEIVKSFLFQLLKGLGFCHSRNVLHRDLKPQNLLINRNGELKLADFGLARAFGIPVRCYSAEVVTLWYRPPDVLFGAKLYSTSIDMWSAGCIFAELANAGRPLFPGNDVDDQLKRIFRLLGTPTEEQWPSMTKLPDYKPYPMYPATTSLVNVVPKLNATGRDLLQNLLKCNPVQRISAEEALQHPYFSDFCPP
Sequence of CDK 5 (Q15078 whole entry partner): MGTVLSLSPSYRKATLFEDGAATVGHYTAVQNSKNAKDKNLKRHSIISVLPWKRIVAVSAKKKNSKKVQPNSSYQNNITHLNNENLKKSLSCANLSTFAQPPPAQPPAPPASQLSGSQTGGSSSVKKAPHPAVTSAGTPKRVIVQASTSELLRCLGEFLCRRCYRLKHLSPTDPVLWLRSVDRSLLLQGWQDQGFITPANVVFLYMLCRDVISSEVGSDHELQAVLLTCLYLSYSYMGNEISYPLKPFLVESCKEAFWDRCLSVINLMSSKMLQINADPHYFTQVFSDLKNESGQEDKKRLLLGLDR

CC(C)c1cnn2c(NCc3ccccc3)cc(NCCCCCCCN)nc12 [BS-181]
remaining activity at 10 µM (PKD1; PKD1, 10 μM, read-out: Mean Remaining Enzyme Activity (%)): 53%

C=C[C@H](CO)Nc1cc(NCc2ccccc2)n2ncc(C(C)C)c2n1 [ICEC0065]
remaining activity at 10 µM (PKD1; [1]): 88% | remaining activity at 0.1 µM (CDK 5): 83% | IC50 (CDK 5): > 1000 nM

CC[C@H](CO)Nc1cc(NCc2ccccc2)n2ncc(C(C)C)c2n1 [ICEC0067]
remaining activity at 10 µM (PKD1; [1]): 87% | remaining activity at 0.1 µM (CDK 5): 84%

CC(C)c1cnn2c(NCc3ccccc3)cc(N[C@@H](CO)[C@H](O)CO)nc12 [ICEC0318, (3S)-3-(7-(Benzylamino)-3-isopropylpyrazolo[1,5-a]pyrimidin-5-ylamino)butane-1,2,4-triol]
remaining activity at 10 µM (PKD1; [1]): 97% | remaining activity at 0.1 µM (CDK 5): 14% | IC50 (CDK 5): 30 nM

CC(C)c1cnn2c(NCc3ccccc3F)cc(NCCCCCN)nc12 [ICEC-0232]
mean activity remaining (as a percentage of the original activity), PKD1 (PKD1; 10 micromolar compound): 32%
